The text below walks through data of the NIST ThermoML archive (doi:10.1016/j.tca.2016.05.006).

Numbers after ± are expanded uncertainties.

For the data set the following is noted: 298.15 K, 101.33 kPa, Liquid.

Consider `OCCO` [1,2-ethanediol], for which the electrical conductivity (Alternating current cell with electrodes) stood at 9.2e-05 ± 2e-06 S/m. Moreover, the thermal conductivity (Transient line heat source) was 0.2438 ± 0.011 W/m/K.
